Source: patent US11324795B2, “Composition comprising Hordeum vulgare extract for preventing or treating short stature” (UNIVERSITY-INDUSTRY COOPERATION GROUP OF KYUNG HEE …, priority 2013, dated 2022)

System: Sprague-Dawley female rats
Experiment: Evaluation of longitudinal bone growth effect, tetracycline staining method
Assay type: in vivo, rat
Method: As experimental animals, four-week-old Sprague-Dawley female rats (Samtako, Korea) weighing about 100 g were purchased and cared for so as to be acclimatized to the experimental environment while supplying sufficient feed and water. After about 1 week for the acclimatization period, animal testing was performed.
Two days after administration, 20 mg/kg of tetracycline hydrochloride (Sigma T7660) was injected intraperitoneally to all test groups. Two days thereafter, the rats were sacrificed via cervical dislocation, after which the left and right tibiae were removed, fixed in a fixing solution at 4° C. for 3 days, allowed to stand in 50 mM EDTA for 1 day, demineralized, and immersed in 30% sucrose overnight to protect freezing. The bone tissue thus dehydrated was frozen, and cut into 40 μm sections using a sliding microtome (HM440E, Zeiss, Germany), thus collecting sagittal sections of the proximal part of the tibia. To measure the bone growth, each sagittal section of the proximal part of the tibia, 40 μm thick, was placed on a slide glass, dried, and then observed under UV light at a wavelength of 400 nm using a fluorescence microscope (FIG. 1). Using image analysis software ImageJ (NIH, USA), the length between the fluorescence bands formed by the deposition of tetracycline in the growth plate and the bone tissue was measured, and Student's t-test and ANOVA test for comparison with a control group were performed in order to determine the growth effect.
The Hordeum vulgare extract prepared in Example 1 was administered after having been dissolved in a concentration of 30 mg/kg in type II distilled water in a volume of 1.0 ml per 100 g of rat weight, and as a control group, the same volume of type II distilled water was administered. The Hordeum vulgare extract was orally administered two times a day for a total of four days, starting from 2 days before the administration of tetracycline until the test termination day. […]

Substance: Positive control group: recombinant human growth hormone (rhGH; LG Lifescience, Eutropin®)
- Longitudinal bone growth rate (%) (Table 1, extract 30 mg/kg (p.o.), positive control 20 μg/kg (s.c.)): 6.6%
- longitudinal bone growth rate (proximal tibia, tetracycline band length, 4 days dosing, extract 30 mg/kg p.o. two times a day, rhGH 20 μg/kg s.c. once a day): 360.1±35.8 μm/day
- longitudinal bone growth rate, % higher than normal control group (vs 337.8±30.0 μm/day in normal control group, extract 30 mg/kg p.o. (p<0.001), rhGH 20 μg/kg s.c. (not significant)): 6.6%
